According to patent publication USRE29883E, “Antibacterial product” (Cosan Chemical Corporation, priority 1977, dated 1979):

How the values were obtained:
[1] = data available from Dow Chemical on Dowicil 200; cited from earlier work
[2] = data available from Dow Chemical on Dowicil 100; cited from earlier work
[3] = test system: common forms of bacteria; experiment: antimicrobial effectiveness in water-based systems, general statement; details: relative to suggested range 0.05% to 0.20%
From the text: The two-to-one quaternary ammonium adduct of this invention is useful in the preparation and storage of systems susceptible to deterioration by microorganisms such as the common forms of bacteria. The exact concentration of the adduct during use is dependent upon a number of factors including duration of storage, temperature of storage, etc.

[4] = thermal decomposition; format: physicochemical
[5] = Acute Oral LD50; details: in vivo, standard, accepted protocols
From the text: (§1) Both the acute oral LD50 and acute dermal LD50 tests were run in accordance with standard, accepted protocols.

[6] = toxicological comparison with the one-to-one adducts (acute dermal and acute oral LD50); format: in vivo
From the text: Additionally, the two-to-one adduct formed from hexamethylenetetramine and 3,4-dichlorobutene-1 according to this invention is less toxic than either the Frank or Wolf one-to-one adducts.
as §1

[7] = water solubility; format: physicochemical
[8] = test system: bacterial cultures; experiment: microbial stability of oil-water hair dressing emulsion (Example 5); details: 0.2% adduct in oil-water hair dressing emulsion; after 6 months at 35° C
Protocol: The following is a formulation for an oil-water hair dressing emulsion: […]
Part A is heated to 75° C. and Part B is heated to 70° C. The test compound (Part C) is dissolved in Part B and the resulting solution added to Part A with good agitation. The mixture was perfumed 45° C. and agitated until cold.
The composition prepared above was tested for microbial stability for a period of 6 months and after 6 months at 35° C.

[9] = Acute Dermal LD50; details: in vivo, topical or ocular, standard, accepted protocols
From the text: as §1

[10] = test system: gram positive and gram negative microorganisms; experiment: antimicrobial spectrum, general statement
From the text: The two-to-one quaternary ammonium adduct of this invention is particularly useful as an antimicrobial agent in a wide variety of water-based systems such as latex paints, resin emulsions, joint cement, adhesives, dispersed pigments and dyes, and other similar aqueous compositions.

[11] = test system: Pseudomonas aeruginosa; experiment: antibacterial properties of latex paint inoculated with Pseudomonas aeruginosa (Example 4); details: 3.6 grams adduct in vinyl acrylic paint
Protocol: To a 1 gallon stainless steel beaker, equipped with a sheer type agitator, the following ingredients are charged in sequence:
This premix is then added to the above with agitation such that excessive air is not incorporated. To the above prepared combination is added 1,401 grams of a vinyl acrylic resin emulsion and mixed for a period of 10 minutes.
The resulting paint prepared above was examined for antibacterial properties by inoculating a portion with approximately 10^8 organisms per ml Pseudomonas aeruginosa. Paint samples returned to sterility within 24 hours of inoculation and maintained the same degree of preservation for periods in excess of 9 months, at which time the testing was discontinued.

SMILES | Acute Dermal LD50 [1] [mg/kg] | Acute Oral LD50 [2] [mg/kg] | minimal inhibitory concentrations vis-a-vis the common bacteria [3] | decomposition point [4] | LD50 [5] [mg/kg] | toxicity relative to the Frank or Wolf one-to-one adducts [6] | water solubility [7] | resistance to bacterial contamination on inoculation with bacterial cultures [8] | LD50 [9] [mg/kg] | effectiveness against microorganisms [10] | preservation of paint viscosity, stability and performance characteristics [11] | time for paint samples to return to sterility after inoculation ([11]; approximately 10^8 organisms per ml Pseudomonas aeruginosa) [h] | period for which the same degree of preservation was maintained ([11]; testing then discontinued) [months]
ClC=CC[N+]12CN3CN(CN(C3)C1)C2 | 540 | 745 | – | – | – | – | – | – | – | – | – | – | –
C(=CC[N+]12CN3CN(CN(C3)C1)C2)C[N+]12CN3CN(CN(C3)C1)C2 [1,1'-(but-2-enylene) bis(3,5,7-triaza-1-azoniaadamantane chloride)] | – | – | much less than this suggested range | about 130 °C | 3400 | less toxic | water-soluble | still resistant to bacterial contamination | 8000 | effective against a broad spectrum of gram positive and gram negative microorganisms | maintained the viscosity, stability and performance characteristics of the paint | ≤ 24 | > 9
ClCC=CC[N+]12CN3CN(CN(C3)C1)C2 [reference compound] | – | – | – | – | 1600 | – | – | – | 2000 | – | – | – | –
